Results on five compounds are retold here after paper PMC6761512, “Trypanosoma cruzi Phosphomannomutase and Guanosine Diphosphate-Mannose Pyrophosphorylase Ligandability Assessment” (Antimicrobial Agents and Chemotherapy, 2019).

Structures are written as SMILES.

In one assay the test system is T. cruzi GDP-MP enzyme. Nature of the assay: Km determination with the GDP-MP assay. Format: biochemical. As for the experimental part:
(§1) All enzyme and substrate solution dilutions were prepared in assay buffer comprising 25 mM Tris-HCl (pH 7.5), 150 mM NaCl, 4 mM MgCl2, 0.01% (vol/vol) Tween 20, and 1 mM dithiothreitol in ultrapure water. Biochemical assays were performed in a 50-μl final assay volume using clear 384-well assay microplates (Greiner, catalog no. 781101) at room temperature. Unless stated otherwise, all reagent concentrations are written as final biochemical assay concentrations, and DMSO or compounds were added to assay plates using Echo acoustic dispensers (Labcyte). Reagent addition for high-throughput screening assays was performed using an Xrd-384 liquid dispenser (FluidX, UK) and a BioFill Solo/Xrd-384 16 channel resin nozzle (2.00 to 200 μl) tubing cartridge (FluidX, catalog no. 34-1005-S). Biochemical reactions were terminated by addition of 50 μl of BIOMOL Green (Enzo Life Sciences, catalog no. BML-AK111-1000) reagent, after which absorbance was measured following a 30-min incubation at room temperature. Absorbance measurements were performed at 650 nm using a PHERAStar microplate reader (BMG Labtech, Germany), and the data are represented as relative absorbance units (RAU). Linear and nonlinear regression was performed using the SigmaPlot 12.5 software, unless stated otherwise.
To calculate the Michaelis constant (Km) for the M-1-P substrate, 20-min time course reactions using a fixed concentration of GDP-MP enzyme (3.13 nM), a saturating concentration of GTP substrate (600 μM) mixed with inorganic pyrophosphatase (1 U/ml; Merck, catalogue no. I5907-1MG), and various concentrations of M-1-P substrate (150, 75, 37.5, 18.8, 9.38, 4.69, and 2.34 μM) were performed. The Km for the GTP substrate was acquired in a similar manner using a saturating concentration of M-1-P (150 μM) and various concentrations of GTP substrate (300, 150, 75, 37.5, 18.8, 9.38, and 4.69 μM). In both cases, background control samples were also included that lacked the presence of GDP-MP enzyme. At the end of the time courses, the biochemical reactions were terminated, and absorbance measurements were taken. […]

Assay [1] addresses T1, T. cruzi GDP-MP (Trypanosoma cruzi, UniProt Q4CMK4). Nature of the assay: standard configuration GDP-MP biochemical assay. On the procedure:
as §1
Concentration-response assessment of hits using the PMM-GDP-MP assays was performed by adding 25 μl of a solution of PMM and GDP-MP enzymes (6.25 and 3.13 nM, respectively) to columns 1 to 11 and 13 to 23 of microplates containing various concentrations of compounds (10 final assay concentrations ranging from […] at 1 in 3 dilution increments in the presence of 1% [vol/vol] DMSO). Buffer only (25 μl) was added to columns 12 and 24. Columns 11 and 23 were utilized as “maximum effect” control populations (1% [vol/vol] DMSO with enzyme), and columns 12 and 24 were “minimum effect” control populations (1% [vol/vol] DMSO in the absence of enzyme). This was followed by the addition of 25 μl of a mixture containing inorganic pyrophosphatase (1 U/ml) and substrates/cofactors (150 μM GTP, 45 μM M-6-P, and 6 μM G-1,6-BP for the standard configuration assay and 150 μM GTP, 225 μM M-6-P, and 30 μM G-1,6-BP for the high-substrate configuration assay) to the entire assay plate. The standard configuration assay plates were incubated at room temperature for 90 min, and the high-substrate configuration assay plates were incubated for 80 min. Standard and high-substrate configuration GDP-MP assay compound concentration-response assessments were performed as described above by incubating GDP-MP enzyme (3.13 or 0.78 nM) in the presence of GTP (30 or 300 μM), M-1-P (15 or 150 μM), and inorganic pyrophosphatase (1 U/ml) for 50 min at room temperature. Pyrophosphatase counterscreen concentration-response assessments were performed by preincubating compounds with inorganic pyrophosphatase (1 U/ml) for 90 min at room temperature, followed by the addition of inorganic pyrophosphate (10 μM) and a secondary 5-min incubation at room temperature. At the end of the incubation periods, the biochemical reactions were terminated and absorbance measurements were taken. RAU values were normalized to % inhibition values relative to the maximum and minimum effect control populations. pIC50 values, defined as –log[IC50(M)], were calculated by fitting concentration-response data for each independent replicate separately to a four-parameter logistic model, as shown below, using either the IDBS ActivityBase 8.1.2.12 or SigmaPlot 12.5 software. Where appropriate, the top curve plateau parameter was constrained to a value of 100.
The four-parameter logistic model was as follows, where Min is the minimum asymptote and Max is the maximum asymptote: y=Min+Max – Min/1+(10^−logIC50/x)^Hill slope

Assay [2] has as its target T2, T. cruzi PMM and GDP-MP enzymes (Trypanosoma cruzi, UniProt Q4CMK4). The assay is described as follows: standard configuration PMM-GDP-MP biochemical assay. As to conditions: for pIC50: library stock material, mean n=2; for pIC50 ± SD: repurchased material, n=3. On the procedure:
as §1
Single-point diversity screening was performed using the standard configuration PMM-GDP-MP biochemical assay and microplates containing compounds in columns 1 to 22 from two diverse small-molecule compound sets covering traditional small-molecule chemical space (DDD, 9,257 compounds; molecular weights between 185.2 and 492.2) and more three-dimensional chemical space (GHCDL, 8,860 compounds; molecular weights between 190.24 and 449.3) at a final concentration of 10 μM (final DMSO concentration = 0.1% [vol/vol]) or a small polar set (16,845 primarily fragment-sized compounds with increased polarity; molecular weights between 88.1 and 476.0) at a final concentration of 300 μM (final DMSO concentration = 0.3% [vol/vol]). Columns 23 and 24 both contained DMSO (either 0.1 or 0.3% [vol/vol] at final assay concentration) and were utilized as “maximum effect” and “minimum effect” control populations, respectively. For screening purposes, 25 μl of a solution containing PMM and GDP-MP enzymes (6.25 and 3.13 nM, respectively) was added to columns 1 to 23, and 25 μl of buffer only was added to column 24. This was followed by the addition of 25 μl of a mixture containing inorganic pyrophosphatase (1 U/ml) and substrates/cofactors (150 μM GTP, 45 μM M-6-P, and 6 μM G-1,6,-BP). The assay plates were incubated at room temperature for 90 min. At the end of the incubation period, the biochemical reactions were terminated, and absorbance measurements were taken. Robust Z′ values were calculated for each assay microplate using the following equation: Robust Z’=1 –((3 ×(1.483 ×(RAU MAD Max)))+(3 ×(1.483 ×(RAU MAD Min))))/(median RAU Max− median RAU Min) where MAD is the median absolute deviation, Max are the maximum effect control samples, and Min are the minimum effect control samples.
RAU values were normalized to percent inhibition values relative to the maximum and minimum effect control populations, and compounds displaying percent inhibition values of ≥30% were selected as hits. Data were processed using IDBS ActivityBase 8.1.2.12 and Dotmatics Limited Vortex v2017.08.69598-59-s software.
Concentration-response assessment of hits using the PMM-GDP-MP assays was performed by adding 25 μl of a solution of PMM and GDP-MP enzymes (6.25 and 3.13 nM, respectively) to columns 1 to 11 and 13 to 23 of microplates containing various concentrations of compounds (10 final assay concentrations ranging from […] at 1 in 3 dilution increments in the presence of 1% [vol/vol] DMSO). Buffer only (25 μl) was added to columns 12 and 24. […]

Assay [3] deals with T1, T. cruzi GDP-MP. Nature of the assay: high-substrate configuration GDP-MP biochemical assay. The following applies: for IC50: GDP-MP, high-substrate configuration, repurchased material, n=3; for mode of inhibition of GDP-MP: from comparison of standard and high-substrate (10-fold) configuration GDP-MP assays. On the procedure:
as §1
Concentration-response assessment of hits using the PMM-GDP-MP assays was performed by adding 25 μl of a solution of PMM and GDP-MP enzymes (6.25 and 3.13 nM, respectively) to columns 1 to 11 and 13 to 23 of microplates containing various concentrations of compounds (10 final assay concentrations ranging from 990 to 1.92 μM at 1 in 3 dilution increments in the presence of 1% [vol/vol] DMSO). Buffer only (25 μl) was added to columns 12 and 24. Columns 11 and 23 were utilized as “maximum effect” control populations (1% [vol/vol] DMSO with enzyme), and columns 12 and 24 were “minimum effect” control populations (1% [vol/vol] DMSO in the absence of enzyme). This was followed by the addition of 25 μl of a mixture containing inorganic pyrophosphatase (1 U/ml) and substrates/cofactors (150 μM GTP, 45 μM M-6-P, and 6 μM G-1,6-BP for the standard configuration assay and 150 μM GTP, 225 μM M-6-P, and 30 μM G-1,6-BP for the high-substrate configuration assay) to the entire assay plate. […] At the end of the incubation periods, the biochemical reactions were terminated and absorbance measurements were taken. RAU values were normalized to % inhibition values relative to the maximum and minimum effect control populations. pIC50 values, defined as –log[IC50(M)], were calculated by fitting concentration-response data for each independent replicate separately to a four-parameter logistic model, as shown below, using either the IDBS ActivityBase 8.1.2.12 or SigmaPlot 12.5 software. […]

Assay [4] deals with T2, T. cruzi PMM and GDP-MP enzymes. Nature of the assay: high-substrate configuration PMM-GDP-MP biochemical assay. As to conditions: repurchased material, n=3. On the procedure:
as §1, with “otherwise. […]” for “otherwise.”

The mark [5] stands for this setting: library stock material, n=1, read-out: pIC50 (converted).
Where [6] appears, read: repurchased material, n=3, read-out: pIC50 ± SD (converted).

T1 sequence (Q4CMK4 entry or part of it): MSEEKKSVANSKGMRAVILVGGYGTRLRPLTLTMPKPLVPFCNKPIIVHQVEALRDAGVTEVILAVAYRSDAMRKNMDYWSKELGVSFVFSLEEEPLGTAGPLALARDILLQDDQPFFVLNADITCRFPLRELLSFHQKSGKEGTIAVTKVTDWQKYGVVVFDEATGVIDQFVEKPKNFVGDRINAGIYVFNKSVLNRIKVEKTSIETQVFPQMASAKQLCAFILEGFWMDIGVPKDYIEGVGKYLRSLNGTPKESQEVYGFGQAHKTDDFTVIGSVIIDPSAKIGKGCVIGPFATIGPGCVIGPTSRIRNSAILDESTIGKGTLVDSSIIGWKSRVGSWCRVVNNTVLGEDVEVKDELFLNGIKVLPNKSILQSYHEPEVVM
T2 sequence (Q4CMK4 entry or part of it): as above
T2 sequence (Q4E4A3 entry or part of it, further chain): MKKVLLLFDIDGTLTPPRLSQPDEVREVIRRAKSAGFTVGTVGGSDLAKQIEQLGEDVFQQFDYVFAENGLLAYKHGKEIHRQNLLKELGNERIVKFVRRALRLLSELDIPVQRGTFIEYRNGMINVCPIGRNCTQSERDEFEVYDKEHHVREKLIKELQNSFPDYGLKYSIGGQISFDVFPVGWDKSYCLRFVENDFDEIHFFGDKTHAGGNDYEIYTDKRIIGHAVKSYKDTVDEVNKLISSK

On to `Nc1nc2c(ncn2[C@@H]2O[C@H](COP(=O)(O)OP(=O)(O)OP(=O)(O)O)[C@@H](O)[C@H]2O)c(=O)[nH]1` [GTP], for which the “GTP Km of T. cruzi GDP-MP, fold higher than reported for L. donovani” value in the assay on T. cruzi GDP-MP enzyme (vs L. donovani GDP-MP) was 2.4 fold. Besides, in the assay with T. cruzi GDP-MP enzyme (vs L. major GDP-MP), the “GTP Km of T. cruzi GDP-MP, fold higher than reported for L. major” value came out at 27 fold. For the same compound, in the assay with T. cruzi GDP-MP enzyme (vs L. mexicana GDP-MP), the “GTP Km of T. cruzi GDP-MP, fold higher than reported for L. mexicana” value is on record as 5.3 fold.

For the compound `CC(C)C(C(=O)O)N1C(=O)C=CC1=O` (stereo not drawn) [compound 1], the IC50 at T. cruzi GDP-MP [1] (setting [5]) was 25.1 µM. For the same compound, in assay [2], the pIC50 (as a rule, the IC50 on a negative log10 scale, so that one unit is a factor of ten) was 4.9 (2).

`c1ccn2c(CNCCCN3CCC3)cnc2c1` [compound 2]: the figures for the IC50 on T. cruzi GDP-MP [1] (setting [5]), on T. cruzi GDP-MP [1] (setting [6]) and against T. cruzi GDP-MP [3] were more than 1000 µM, more than 1000 µM and 794 µM, respectively. The pIC50 in assay [2] was 3.6 (2). Besides, the “pIC50 ± SD” value in assay [2] is 3.1 ± 0.2 (3); in assay [4] it was 3.2 ± 0.2 (3). Further, at T. cruzi GDP-MP [3], the “mode of inhibition of GDP-MP” value is “uncompetitive inhibition”.

For the compound `CC(=O)OCc1cc(-c2csc(N)n2)ccc1O` [compound 3], the figures for the IC50 at T. cruzi GDP-MP [1] (setting [5]), at T. cruzi GDP-MP [1] (setting [6]) and at T. cruzi GDP-MP [3] were 158 µM, 126 µM and 316 µM, respectively. Besides, in assay [2], the pIC50 is reported as 3.5 (2). For the same compound, the figures for the “pIC50 ± SD” value in assay [2] and in assay [4] were 3.9 ± 0.2 (3) and 3.6 ± 0.1 (3), respectively. In addition, the “mode of inhibition of GDP-MP” value at T. cruzi GDP-MP [3] is given as “competitive inhibition”.

On to `N[C@H]1CCN(CCCOc2ccc(C(=O)O)cc2)C1` [compound 4], for which the IC50 at T. cruzi GDP-MP [1] (setting [5]) was 158 µM. Besides, the pIC50 in assay [2] is on record as 4.0 (2).
